Experimental data reported in ChEMBL document CHEMBL5365393, “Comprehensive coverage on anti-mycobacterial endeavour reported during 2022” (Eur J Med Chem, 2023).
≈ marks a conversion by molar mass, not a printed value.

Tested on: Mycobacterium tuberculosis variant bovis
Experiment: Antibacterial activity against Mycobacterium bovis BCG assessed as inhibition of bacterial growth incubated for 15 days by REMA method
Assay type: functional
Details: 360 h, time 15 day

Structure (SMILES): N#Cc1cc(OCCOc2ccccc2)cc(-c2ccc(C(=O)O)o2)c1
- MIC99: 63 µM (≈ 22 µg/mL)
